# Measurements: US20010049368A1, “Method for treating or preventing depression” (priority 2000, published 2001)
# Assays:
# [1] = test system: emesis in ferrets (retches and vomits); assay: Ferret emesis: PDE4 inhibitors and alpha-2 adrenoreceptor agonists/antagonists; settings: for emesis (retching and vomiting) induced by the drug itself: yohimbine by intraperitoneal injection, clonidine 62.5-250 μg kg-1
# Method: Experiments were conducted using male, adult, fitch or albino ferrets. They were housed in a humidity and temperature controlled environment and fed on carnivore diet (standard cat food) once a day with water ad libitum. On the day of the experiment, the animals were put in individual observation cages and left to habituate for at least 30 minutes.
# Drugs were dissolved immediately before use in 100% PEG 300 or sterile water). Oral administration (p.o.) was performed using a 10 cm feeding tube and drugs were administered in a dosing volume of 1 ml kg^−1. Subcutaneous (s.c.) injections were performed at the base of the neck, using sterile water or PEG 300 as the vehicle. The injection volume used was 0.5-1.0 ml kg^−1. For intravenous (i.v.) injections, the left jugular vein was catheterized with a polyethene cannula under halothane anaesthesia. Drugs were dissolved in PEG 300 50% in sterile water and injected in a volume of 1 ml-kg^−1. The vein was then ligated, the incision closed and the animals observed continuously thereafter.
# Ferrets were pre-treated with the alpha2-adrenoceptor antagonist, yohimbine.
# [2] = molecular target: T1, human NK-1 receptor (Homo sapiens, UniProt P25103); assay: NK-1 receptor binding assay in intact CHO cells (125I-Tyr8-substance P); settings: CHO cells expressing the human NK-1 receptor
# T1 construct: expressed in transfected cells; host or cells: intact CHO (Chinese hamster ovary) cells
# Method: NK-1 receptor binding assays are performed in intact Chinese hamster ovary (CHO) cells expressing the human NK-1 receptor using a modification of the assay conditions described by Cascieri et al, J. Pharmacol. Exp. Ther., 1992, 42, 458. Typically, the receptor is expressed at a level of 3×10^5 receptors per cell. Cells are grown in monolayer culture, detached from the plate with enzyme-free dissociation solution (Speciality Media Inc.), and washed prior to use in the assay. ^125I-Tyr^8-substance P (0.1 nM, 2000 Ci/mmol; New England Nuclear) is incubated in the presence or absence of test compounds (dissolved in 5 μl dimethylsulphoxide, DMSO) with 5×10^4 CHO cells. Ligand binding is performed in 0.25 ml of 50 mM Tris-HCl, pH7.5, containing 5 mM MnCl2, 150 mM NaCl, 0.02% bovine serum albumin (Sigma), 50 μg/ml chymostatin (Peninsula), 0.1 nM phenylmethylsulphonyl fluoride, 2 μg/ml pepstatin, 2 μg/ml leupeptin and 2.8 μg/ml furoyl saccharine. The incubation proceeds at room temperature until equilibrium is achieved (>40 minutes) and the receptor-ligand complex is harvested by filtration over GF/C filters pre-soaked in 0.1% polyethylenimine using a Tomtek 96-well harvester. Non-specific binding is determined using excess substance P (1 μM) and represents <10% of total binding.
# [3] = test system: PDE IV inhibitor-induced emesis in the ferret; assay: Ferret emesis: PDE4 inhibitors and neurokinin-1 receptor antagonists; assay type: in vivo; settings: NK-1 antagonist 3 mg kg-1 i.p. or s.c. 30 minutes prior to oral emetic dose of PDE IV inhibitor
# Method: Intracerebroventricular (i.c.v.) administration was performed following a surgical implantation of an i.c.v. guide cannula. Under isoflurane anaesthesia, a 22 gauge stainless steel guide cannula (total length=20 mm) was lowered 9 mm below the surface of the skull, at the midline, 2 mm anterior to the cross-suture of the posterior edge of the skull. The tip of the guide cannula is then positioned 3-5 mm directly above the area postrema. The guide cannula was fixed to the skull using 2 screws and dental acrylic cement. The animals received antibiotic (Clamoxyl LA, SmithKline Beecham, Surrey, U.K.; 15 mg kg^−1 s.c.) and analgesic injections (Zenecarp, C-Vet Limited, Edmounds, U.K.; 5 mg kg^−1 s.c.) and were housed in individual cages. They were allowed at least 1 week to recover. Intracerebroventricular administration of drugs was performed by inserting an injection unit of 24-25 mm (level of the area postrema) or 27 mm (for brain tissue injection) length into the guide cannula and infusing 2 μl of the drug solution (or vehicle) over 1 minute. The drugs were dissolved in DMSO or sterile water. […]
# Anti-emetic agents ondansetron (3 mg kg^−1 i.p.), and neurokinin-1 receptor antagonists (3 mg kg^−1 i.p. or s.c.) were administered 30 minutes prior to an oral challenge with an emetic dose of selected PDE IV inhibitors. […] The emetic response was monitored as described earlier. […]
# T1 sequence (P25103 whole entry): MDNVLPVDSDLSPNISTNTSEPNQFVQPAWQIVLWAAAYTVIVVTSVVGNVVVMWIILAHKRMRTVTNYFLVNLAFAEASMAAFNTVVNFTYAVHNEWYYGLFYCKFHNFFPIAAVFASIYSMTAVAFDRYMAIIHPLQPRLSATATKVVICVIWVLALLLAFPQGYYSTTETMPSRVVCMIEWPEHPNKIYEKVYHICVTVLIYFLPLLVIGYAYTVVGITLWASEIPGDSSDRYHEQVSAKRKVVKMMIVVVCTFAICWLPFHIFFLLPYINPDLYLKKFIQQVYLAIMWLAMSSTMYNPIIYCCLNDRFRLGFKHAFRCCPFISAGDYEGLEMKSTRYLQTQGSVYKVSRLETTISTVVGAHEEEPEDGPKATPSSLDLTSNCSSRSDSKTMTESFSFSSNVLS
smiles,measurement,setting,value
COC(=O)[C@@H]1[C@H]2C[C@H]3c4[nH]c5ccccc5c4CCN3C[C@@H]2CC[C@@H]1O [yohimbine],emesis (retching and vomiting) induced by the drug itself,[1],induced retching and vomiting in all ferrets treated
Clc1cccc(Cl)c1N=C1NCCN1 [clonidine],number of retches and vomits induced by RS 14203,"[1]; RS 14203 1 mg kg-1 p.o., clonidine 62.5-250 μg kg-1 pre-treatment",dose-dependently decreased
same,latency of onset of RS 14203-induced emesis,"[1]; RS 14203 1 mg kg-1 p.o., clonidine pre-treatment",increased
same,emesis induced by CT-2450,"[1]; clonidine 250 μg kg-1, CT-2450 30 mg kg-1 p.o., all animals treated",abolished
same,animals with complete protection against R-rolipram-induced emesis,"[1]; clonidine 250 μg kg-1, R-rolipram 3 mg kg-1 p.o.",two out of three
same,animals with complete protection against RS 14203-induced emesis,"[1]; clonidine 250 μg kg-1, RS 14203 1 mg kg-1 p.o.",five out of six
"C[C@@H](O[C@H]1OCCN(Cc2nn[nH]c2CN(C)C)[C@H]1c1ccccc1)c1cc(C(F)(F)F)cc(C(F)(F)F)c1 [2-(R)-(1-(R)-(3,5-bis(trifluoromethyl)phenyl)ethoxy)-4-(5-(N,N-dimethylamino)methyl-1,2,3-triazol-4-yl)methyl-3-(S)-phenylmorpholine]",IC50,[2],0.25 nM
CN1CC[C@]2(CCN3CCc4c(oc5ccccc45)[C@@H]3C2)N(C)C1=O [MK-912],emesis (retching and vomiting) induced by the drug itself,[1],Emesis was also recorded
"COc1ccccc1CN[C@H]1CCCN[C@H]1c1ccccc1 [CP-99,994]",effect on PDE IV inhibitor-induced emesis,[3],abolished
CS(=O)(=O)NCCN1C(=O)NC[C@]12CCN1CCc3c(oc4ccccc34)[C@@H]1C2 [MK-467],emesis (retching and vomiting) induced by the drug itself,[1],Emesis was also recorded
